pIC50: −log10 of the molar value.
Key:
[1] = target: unphosphorylated c-FMS kinase (uFMS, Seq. ID no. 1) (Homo sapiens (Human), UniProt P07333); test: uFMS kinase assay (ADP production coupled to pyruvate kinase/lactate dehydrogenase); format: biochemical; conditions: enzymatic assay, ATP 500 μM; read-out: uFMS
Protocol: uFMS kinase (Seq. ID No. 1) Assay
In this assay, the oxidation of NADH (thus the decrease at A340 nm) was continuously monitored spectrophometrically. The reaction mixture (100 μL) contained FMS (purchased from Millipore) (10 nM), polyE4Y (1 mg/mL), MgCl2 (10 mM), pyruvate kinase (4 units), lactate dehydrogenase (0.7 units), phosphoenol pyruvate (1 mM), NADH (0.28 mM) and ATP (500 μM) in 90 mM Tris buffer containing 0.2% octyl-glucoside and 1% DMSO, pH 7.5. The inhibition reaction was started by mixing serial diluted test compound with the above reaction mixture. The absorption at 340 nm was monitored continuously for 4 hours at 30° C. on Synergy 2 plate reader. The reaction rate was calculated using the 3 to 4 h time frame. Percent inhibition was obtained by comparison of reaction rate with that of a control (i.e., in the absence of test compound). IC50 values were calculated from a series of percent inhibition values determined at a range of inhibitor concentrations using software routines as implemented in the GraphPad Prism software package.
uFMS Kinase Sequence (Y538-End) Used for Screening (Seq. ID No. 1)

[2] = system: M-NFS-60 cells; test: M-NFS-60 cell proliferation assay (resazurin); format: cell-based; conditions: 67 h incubation
Protocol: M-NFS-60 cells (catalog #CRL-1838) were obtained from the American Type Culture Collection (ATCC, Manassas, Va.). Briefly, cells were grown in suspension in RPMI 1640 medium supplemented with 10% characterized fetal bovine serum (Invitrogen, Carlsbad, Calif.), 0.05 mM 2-mercaptoethanol, and 20 ng/mL mouse recombinant macrophage colony stimulating factor (M-CSF) at 37° C., 5% CO2, and 95% humidity. Cells were allowed to expand until reaching saturation at which point they were subcultured or harvested for assay use.
M-NFS-60 Cell Proliferation Assay
A serial dilution of test compound was dispensed into a 384-well black clear bottom plate (Corning, Corning, N.Y.). Two thousand five hundred cells were added per well in 50 μL complete growth medium. Plates were incubated for 67 h at 37° C., 5% CO2, and 95% humidity. At the end of the incubation period 10 μL of a 440 μM solution of resazurin (Sigma, St. Louis, Mo.) in PBS was added to each well and incubated for an additional 5 h at 37° C., 5% CO2, and 95% humidity. Plates were read on a Synergy2 reader (Biotek, Winooski, Vt.) using an excitation of 540 nm and an emission of 600 nm. IC50 values were calculated from a series of percent inhibition values determined at a range of inhibitor concentrations using software routines as implemented in the GraphPad Prism software package.

[3] = system: osteoclast precursors; test: Osteoclast tartrate-resistant acid phosphatase assay; format: cell-based; conditions: Osteoclast, 7-14 days, RANKL and M-CSF
Protocol: Osteoclast Tartrate-Resistant Acid Phosphatase Assay
A serial dilution of test compound was dispensed into a 384-well black clear bottom plate (Nalge Nunc International, Rochester, N.Y.). Compound was diluted by the addition of DMEM media supplemented with 10% characterized fetal bovine serum (Invitrogen, Carlsbad, Calif.). Diluted compound was transferred to a 384-well black clear bottom plate. Two-thousand five hundred osteoclast precursors (Lonza, Walkersville, Md.) were added per well in growth media containing Receptor Activator of Nuclear Factor Kappa-beta ligand (RANKL) and M-CSF (R&D Systems, Minneapolis, Minn.). Plates were incubated for 7-14 days at 37 degrees Celsius, 5% CO2, and 95% humidity to allow differentiation of osteoclast precursors. At the end of the incubation period, 10 μL of supernatant from each well was transferred to a clear 384-well plate. Tartrate-resistant acid phosphatase activity in the supernatant samples was determined using an acid phosphatase assay kit (Sigma, St. Louis, Mo.). Absorbance was measured at 550 nm using a plate reader. Data was analyzed using Prism software (Graphpad, San Diego, Calif.) to calculate IC50 values.

[4] = target: unphosphorylated c-KIT kinase (uKIT, Seq. ID no. 2) (Homo sapiens (Human), UniProt P10721); test: uKit kinase assay (coupled pyruvate kinase/lactate dehydrogenase); format: biochemical; conditions: enzymatic assay, ATP 2000 μM
Sequence of unphosphorylated c-KIT kinase (uKIT, Seq. ID no. 2) (P10721 other isoform, or with tags, fused parts or gaps): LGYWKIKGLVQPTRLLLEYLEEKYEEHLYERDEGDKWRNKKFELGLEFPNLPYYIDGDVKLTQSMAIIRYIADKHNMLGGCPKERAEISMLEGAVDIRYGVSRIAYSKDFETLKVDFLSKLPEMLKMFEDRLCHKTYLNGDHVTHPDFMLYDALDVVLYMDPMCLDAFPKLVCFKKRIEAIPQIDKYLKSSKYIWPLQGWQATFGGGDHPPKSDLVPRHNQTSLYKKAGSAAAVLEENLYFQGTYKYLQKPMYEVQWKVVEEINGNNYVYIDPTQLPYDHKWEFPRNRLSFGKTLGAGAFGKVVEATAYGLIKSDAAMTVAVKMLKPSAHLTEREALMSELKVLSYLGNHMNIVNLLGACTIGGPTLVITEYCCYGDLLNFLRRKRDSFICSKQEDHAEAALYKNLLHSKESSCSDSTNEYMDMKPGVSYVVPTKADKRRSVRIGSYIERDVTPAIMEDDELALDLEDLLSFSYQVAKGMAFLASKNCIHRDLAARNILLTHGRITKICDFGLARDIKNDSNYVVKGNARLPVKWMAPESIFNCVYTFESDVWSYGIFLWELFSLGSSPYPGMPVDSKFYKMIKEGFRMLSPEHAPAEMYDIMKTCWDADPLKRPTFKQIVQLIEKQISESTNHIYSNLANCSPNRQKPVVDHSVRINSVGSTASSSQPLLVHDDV
Protocol: uKit Kinase (Seq. ID No. 2) Assay
Activity of unphosphorylated c-KIT kinase (uKIT, Seq. ID no. 2) was determined by following the production of ADP from the KIT kinase reaction with ATP and poly E4Y as substrates through coupling with the pyruvate kinase/lactate dehydrogenase system (e.g., Schindler et al. Science (2000) 289: 1938-1942). In this assay, the oxidation of NADH (thus the decrease at A340 nm) was continuously monitored spectrophometrically. The reaction mixture (100 μl) contained unphosphorylated KIT (12 nM), polyE4Y (1 mg/mL), MgCl2 (10 mM), pyruvate kinase (4 units), lactate dehydrogenase (0.7 units), phosphoenol pyruvate (1 mM), and NADH (0.28 mM) and ATP (2000 μM) in 90 mM Tris buffer containing 0.2% octyl-glucoside and 1% DMSO, pH 7.5. The inhibition reaction was started by mixing serial diluted test compound with the above reaction mixture. The absorption at 340 nm was monitored continuously for 4 hours at 30° C. on Synergy 2 plate reader (BioTech). Reaction rates around 3 to 4 h time frame were used to calculate % inhibitions, from which IC50 values were generated.
uKit with N-Terminal GST Fusion Used for Screening (Seq ID No. 2)

Sequence of unphosphorylated c-FMS kinase (uFMS, Seq. ID no. 1) (P07333 538-972): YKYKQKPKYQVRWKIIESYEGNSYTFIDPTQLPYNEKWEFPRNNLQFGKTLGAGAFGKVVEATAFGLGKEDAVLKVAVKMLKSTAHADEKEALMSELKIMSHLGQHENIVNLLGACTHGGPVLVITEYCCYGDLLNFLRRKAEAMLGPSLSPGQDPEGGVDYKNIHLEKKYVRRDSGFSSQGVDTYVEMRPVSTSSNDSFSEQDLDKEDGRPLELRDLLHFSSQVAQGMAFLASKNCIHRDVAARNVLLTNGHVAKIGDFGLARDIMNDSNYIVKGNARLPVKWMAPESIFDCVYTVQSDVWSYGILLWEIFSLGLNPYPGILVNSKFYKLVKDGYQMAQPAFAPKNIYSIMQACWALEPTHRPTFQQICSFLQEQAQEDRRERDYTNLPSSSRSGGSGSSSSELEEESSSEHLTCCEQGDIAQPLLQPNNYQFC

| pIC50 [1] | pIC50 [3] | pIC50 [4] | Compound | pIC50 [2] |
| --- | --- | --- | --- | --- |
| 7.00 to 8.00 | 7.00 to 8.00 | 6.00 to 7.00 | Cc1ncc(-c2cc(Oc3ccc(NC(=O)N4CCN(C5CC5)C4=O)nc3C)ccn2)s1 [Example 65, 3-cyclopropyl-N-(6-methyl-5-((2-(2-methylthiazol-5-yl)pyridin-4-yl)oxy)pyridin-2-yl)-2-oxoimidazolidine-1-carboxamide] | 6.00 to 7.00 |
| 7.00 to 8.00 | 6.00 to 7.00 | 6.00 to 7.00 | Cc1ncc(-c2cc(Oc3ccc(NC(=O)N4CCN(C5CCOCC5)C4=O)nc3C)ccn2)s1 [Example 66, N-(6-methyl-5-((2-(2-methylthiazol-5-yl)pyridin-4-yl)oxy)pyridin-2-yl)-2-oxo-3-(tetrahydro-2H-pyran-4-yl)imidazolidine-1-carboxamide] | 6.00 to 7.00 |
| 6.00 to 7.00 | 6.00 to 7.00 | < 6.00 | COCCN1CCN(C(=O)Nc2ccc(Oc3ccnc(-c4cnc(C)s4)c3)c(C)n2)C1=O [Example 67, 3-(2-methoxyethyl)-N-(6-methyl-5-((2-(2-methylthiazol-5-yl)pyridin-4-yl)oxy)pyridin-2-yl)-2-oxoimidazolidine-1-carboxamide] | 6.00 to 7.00 |
| 6.00 to 7.00 | 6.00 to 7.00 | < 6.00 | Cc1ncc(-c2cc(Oc3ccc(NC(=O)N4CCN(C)C4=O)nc3C)ccn2)s1 [Example 73, 3-methyl-N-(6-methyl-5-((2-(2-methylthiazol-5-yl)pyridin-4-yl)oxy)pyridin-2-yl)-2-oxoimidazolidine-1-carboxamide] | < 6.00 |
| 7.00 to 8.00 | 7.00 to 8.00 | 6.00 to 7.00 | Cc1ncc(-c2cc(Oc3ccc(NC(=O)N4CCN(CC(F)(F)F)C4=O)nc3C)ccn2)s1 [Example 74, N-(6-methyl-5-((2-(2-methylthiazol-5-yl)pyridin-4-yl)oxy)pyridin-2-yl)-2-oxo-3-(2,2,2-trifluoroethyl)imidazolidine-1-carboxamide] | 6.00 to 7.00 |
| > 8.00 | 7.00 to 8.00 | 6.00 to 7.00 | Cc1ncc(-c2cc(Oc3ccc(NC(=O)N4CCN(C5CCCC5)C4=O)nc3C)ccn2)s1 [Example 75, 3-cyclopentyl-N-(6-methyl-5-((2-(2-methylthiazol-5-yl)pyridin-4-yl)oxy)pyridin-2-yl)-2-oxoimidazolidine-1-carboxamide] | 7.00 to 8.00 |
| 7.00 to 8.00 | 6.00 to 7.00 | 6.00 to 7.00 | Cc1cn(-c2cc(Oc3ccc(NC(=O)N4CCN(CC(F)(F)F)C4=O)nc3)ccn2)cn1 [Example 76, N-(5-((2-(4-methyl-1H-imidazol-1-yl)pyridin-4-yl)oxy)pyridin-2-yl)-2-oxo-3-(2,2,2-trifluoroethyl)imidazolidine-1-carboxamide] | 6.00 to 7.00 |
| 7.00 to 8.00 | 6.00 to 7.00 | 7.00 to 8.00 | Cc1cn(-c2cc(Oc3ccc(NC(=O)N4CCN(C5CCOCC5)C4=O)nc3)ccn2)cn1 [Example 77, N-(5-((2-(4-methyl-11H-imidazol-1-yl)pyridin-4-yl)oxy)pyridin-2-yl)-2-oxo-3-(tetrahydro-2H-pyran-4-yl)imidazolidine-1-carboxamide] | 6.00 to 7.00 |
| 7.00 to 8.00 | 6.00 to 7.00 | < 6.00 | CCc1nc(NC(=O)N2CCN(C3CCCC3)C2=O)ccc1Oc1ccnc(-c2cnc(C)s2)c1 [Example 78, 3-cyclopentyl-N-(6-ethyl-5-((2-(2-methylthiazol-5-yl)pyridin-4-yl)oxy)pyridin-2-yl)-2-oxoimidazolidine-1-carboxamide] | < 6.00 |
| 6.00 to 7.00 | 6.00 to 7.00 | 6.00 to 7.00 | CCN1CCN(C(=O)Nc2ccc(Oc3ccnc(-n4cnc(C)c4)c3)cn2)C1=O [Example 79, 3-ethyl-N-(5-((2-(4-methyl-1H-imidazol-1-yl)pyridin-4-yl)oxy)pyridin-2-yl)-2-oxoimidazolidine-1-carboxamide] | < 6.00 |
| 7.00 to 8.00 | 6.00 to 7.00 | < 6.00 | COCCN1CCN(C(=O)Nc2ccc(Oc3ccnc(-c4cn(C)cn4)c3)c(C)n2)C1=O [Example 81, 3-(2-methoxyethyl)-N-(6-methyl-5-((2-(1-methyl-1H-imidazol-4-yl)pyridin-4-yl)oxy)pyridin-2-yl)-2-oxoimidazolidine-1-carboxamide] | 6.00 to 7.00 |
| 7.00 to 8.00 | 7.00 to 8.00 | > 8.00 | CCN1CCN(C(=O)Nc2ccc(Oc3ccnc(-c4cn(C)cn4)c3)cn2)C1=O [Example 82, 3-ethyl-N-(5-((2-(1-methyl-1H-imidazol-4-yl)pyridin-4-yl)oxy)pyridin-2-yl)-2-oxoimidazolidine-1-carboxamide] | 7.00 to 8.00 |
| > 8.00 | 7.00 to 8.00 | 7.00 to 8.00 | Cc1cc(-c2cc(Oc3ccc(NC(=O)N4CCN(C5CCOCC5)C4=O)nc3C)ccn2)ccn1 [Example 87, N-(6-methyl-5-((2′-methyl-[2,4′-bipyridin]-4-yl)oxy)pyridin-2-yl)-2-oxo-3-(tetrahydro-2H-pyran-4-yl)imidazolidine-1-carboxamide] | 7.00 to 8.00 |
